Assay results reported in ChEMBL document CHEMBL1149949, “Nonpeptidic HIV protease inhibitors: 3-(S-benzyl substituted)-4-hydroxy-6-(phenyl substituted)-2H-pyran-2-one with an inverse mode of binding” (Bioorg Med Chem Lett, 1996).

biological target: Human immunodeficiency virus type 1 protease (Human immunodeficiency virus 1, UniProt Q72874); test: In vitro inhibitory activity against HIV-1 protease(PR).

SMILES | IC50
O=C(O)c1ccc(CSc2c(O)cc(-c3ccccc3)oc2=O)cc1 | 10200 nM
Cc1cccc(CSc2c(O)cc(-c3ccccc3)oc2=O)c1 | 8540 nM
O=C(OC1CCCCC1)c1ccccc1CSc1c(O)oc(-c2ccccc2)cc1=O | 1200 nM
O=c1cc(-c2cccc(O)c2)oc(O)c1SCc1ccccc1 | 1190 nM
O=C(O)c1ccccc1CSc1c(O)cc(-c2ccccc2)oc1=O | 24800 nM
COC(=O)c1ccc(-c2cc(O)c(SCc3ccccc3)c(=O)o2)cc1 | > 100000 nM
O=c1cc(-c2ccccc2Cl)oc(O)c1SCc1ccccc1 | 2540 nM
Cc1ccc(-c2cc(O)c(SCc3ccccc3)c(=O)o2)cc1 | 12300 nM
O=c1cc(-c2ccccc2O)oc(O)c1SCc1ccccc1 | 6000 nM
COc1ccc(-c2cc(O)c(SCc3ccccc3)c(=O)o2)cc1 | 1630 nM
O=c1cc(-c2ccccc2)oc(O)c1SCc1ccccc1 | 1700 nM
O=c1cc(-c2ccccc2)oc(O)c1SCc1ccc2c(c1)OCCO2 | 3420 nM
COC(=O)c1ccc(CSc2c(O)cc(-c3ccccc3)oc2=O)cc1 | > 10000 nM
O=C(O)c1cccc(CSc2c(O)cc(-c3ccccc3)oc2=O)c1 | 6150 nM
O=c1cc(-c2cccc(OC(F)(F)F)c2)oc(O)c1SCc1ccccc1 | 2140 nM
COC(=O)c1cccc(CSc2c(O)cc(-c3ccccc3)oc2=O)c1 | 19300 nM
Cc1ccc(CSc2c(O)cc(-c3ccccc3)oc2=O)cc1 | 4580 nM
CCc1cccc(-c2cc(O)c(SCc3ccccc3)c(=O)o2)c1 | 2040 nM
Cc1ccccc1CSc1c(O)cc(-c2ccccc2)oc1=O | 5370 nM
Cc1ccccc1-c1cc(O)c(SCc2ccccc2)c(=O)o1 | 14200 nM

Stronger by IC50, values ahead:

IC50 | SMILES
190 nM | CC(C)(C)NC(=O)c1ccccc1CSc1c(O)cc(-c2ccccc2)oc1=O
740 nM | COc1ccc(-c2cc(O)c(SCc3ccccc3)c(=O)o2)cc1C
360 nM | O=C(O)c1ccc(-c2cc(O)c(SCc3ccccc3)c(=O)o2)cc1
250 nM | Cc1cc(-c2cc(O)c(SCc3ccccc3)c(=O)o2)cc(C)c1O
1000 nM | COC(=O)c1ccccc1CSc1c(O)cc(-c2ccccc2)oc1=O
34 nM | CC(C)OC(=O)c1ccccc1CSc1c(O)cc(-c2ccccc2)oc1=O
790 nM | O=c1cc(-c2ccc3c(c2)OCCO3)oc(O)c1SCc1ccccc1
600 nM | O=c1cc(-c2cccc(C(F)(F)F)c2)oc(O)c1SCc1ccccc1
690 nM | O=c1cc(-c2ccc(O)cc2)oc(O)c1SCc1ccccc1
50 nM | O=C(OC1CCCC1)c1ccccc1CSc1c(O)oc(-c2ccccc2)cc1=O
619 nM | CC(C)COC(=O)c1ccccc1CSc1c(O)cc(-c2ccccc2)oc1=O
690 nM | O=c1cc(-c2cccc(Cl)c2)oc(O)c1SCc1ccccc1
860 nM | Cc1cccc(-c2cc(O)c(SCc3ccccc3)c(=O)o2)c1
260 nM | Cc1cc(C)cc(-c2cc(O)c(SCc3ccccc3)c(=O)o2)c1
990 nM | COc1cccc(-c2cc(O)c(SCc3ccccc3)c(=O)o2)c1
630 nM | O=c1cc(-c2cc(C(F)(F)F)cc(C(F)(F)F)c2)oc(O)c1SCc1ccccc1
